# According to US8088757B2, “Betulinol derivatives as anti-cancer agents” (priority 2004, dated 2012):
# Like-named read-outs stand apart in the source and are kept apart here.
# Columns and labels:
# [1] = system: LNCaP; assay: MTT cytotoxicity assay, LNCaP prostate cancer cells; type: cell-based, human
# Method: The human prostate cancer LNCaP, PC-3, and DU-145 cell lines, as well as human fibroblast cell line, were obtained from the American Type Culture Collection (“ATCC”) and maintained in RPMI-1640, F-12k, and MEM mediums, respectively, supplemented with 10% FBS. Cell lines were maintained at 37° C. under a humidified atmosphere and 5% CO2 for testing of the cytotoxicity of betulinol derivatives. The cytotoxicity assay was performed using MTT assay according to the instructions of ATCC protocol. Cells 1×10^5 in 0.1 ml/well were plated in 96-well culture plates (Costar) and incubated with a different dilution of betulinol derivatives for 24, 48, and 72 hours. Ten μl of 3-[4,5-dimethylthiazol-2-yl]-2,5 diphenyl tetrazolium bromide was added into each well at the end of each incubation period. The reaction product, formazan, was dissolved in the detergent, and the absorbance was read at 540 nm (Ref).
# (§1) However, these compounds were not tested on prostate cancer LNCaP cell line by NCI. […] The anti-tumor activity of the compounds was determined at three doses and the total growth inhibition kill effect as pertinent of the control at 24, 48, and 72 hours as presented in Table 11.
# [2] = system: SF-268; assay: In vitro cytotoxicity, CNS (2), SF-268; type: cell-based, human
# [3] = system: NCI-H460; assay: In vitro cytotoxicity, Lung (2), NCI-H460; type: cell-based, human
# Method: as §1
# [4] = system: MCF7; assay: In vitro cytotoxicity, Breast (2), MCF7; type: cell-based, human
# [5] = system: 184B5/HER; assay: In vitro cytotoxicity, Breast (1), 184B5/HER; type: cell-based; settings: 1 × 10^−4 M
# [6] = system: CAKI-1; assay: In vitro cytotoxicity, Renal (2), CAKI-1; type: cell-based, human
# Method: as §1
# [7] = system: DU-145; assay: In vitro cytotoxicity, Prostate (2), DU-145; type: cell-based, human
# [8] = system: OVACR-3; assay: In vitro cytotoxicity, Ovarian (2), OVACR-3; type: cell-based, human
# Method: as §1
# [9] = system: OVCAR-5; assay: In vitro cytotoxicity, Ovarian (2), OVCAR-5; type: cell-based, human
# Method: as §1
# [10] = system: HOP-92; assay: In vitro cytotoxicity, Lung (2), HOP-92; type: cell-based, human
# Method: as §1
# [11] = system: T-47d; assay: In vitro cytotoxicity, Breast (2), T-47d; type: cell-based, human
# Method: as §1
# [12] = system: NCI-H322M; assay: In vitro cytotoxicity, Lung (2), NCI-H322M; type: cell-based, human
# Method: as §1
# [13] = system: TK-10; assay: In vitro cytotoxicity, Renal (2), TK-10; type: cell-based, human
# Method: as §1
# [14] = system: RXF 393; assay: In vitro cytotoxicity, Renal (2), RXF 393; type: cell-based, human
# [15] = system: U251; assay: In vitro cytotoxicity, CNS (2), U251; type: cell-based, human
# [16] = system: MALME-3M; assay: In vitro cytotoxicity, Melanoma (2), MALME-3M; type: cell-based, human
# [17] = system: PC-3; assay: In vitro cytotoxicity, Prostate (2), PC-3; type: cell-based, human
# [18] = Tolerability of solubilized drug in mice with prostate cancer cell xenografts; type: in vivo; settings: 22% ethanol, 2×10^−3 mol per liter of betulonic acid
# [19] = Homo sapiens, 24 hours, 2.5 × 10^−5 M, read-out: Growth Inhibition %
# [20] = Homo sapiens, 24 hours, 2.5 × 10^−6 M, read-out: Growth Inhibition %
# [21] = Homo sapiens, 24 hours, 2.5 × 10^−7 M, read-out: Growth Inhibition %
# [22] = Homo sapiens, 48 hours, 2.5 × 10^−5 M, read-out: Growth Inhibition %
# [23] = Homo sapiens, 48 hours, 2.5 × 10^−6 M, read-out: Growth Inhibition %
# [24] = Homo sapiens, 48 hours, 2.5 × 10^−7 M, read-out: Growth Inhibition %
compound,measurement,setting,value
"C=C(C)C1CCC2(CO)CC[C@]3(C)[C@H](CC[C@@H]4[C@@]5(C)CCC(O)C(C)(C)[C@@H]5CC[C@]43C)C12 (stereo partly drawn) [Compound 1, Betulinol]",inhibition at 25 µM,[1]; [19],47.2%
same,inhibition at 2.5 µM,[1]; [20],11.9%
same,inhibition at 0.25 µM,[1]; [21],8.24%
same,inhibition at 25 µM,[1]; [22],31%
same,inhibition at 2.5 µM,[1]; [23],13.8%
same,inhibition at 0.25 µM,[1]; [24],10.6%
"C=C(C)[C@@H]1CC[C@]2(CO)CC[C@]3(C)[C@H](CC[C@@H]4[C@@]5(C)CC[C@H](OC(C)=O)C(C)(C)[C@@H]5CC[C@]43C)[C@@H]12 [Compound 8, 3-Acetoxy Betulin]",Growth Inhibition %,"[1]; 24 hours, 2.5 × 10^−7 M",0%
"C=C(C)C1CCC2(C=O)CCC3(C)C(CCC4C5(C)CCC(=O)C(C)(C)C5CCC43C)C12 (stereo not drawn) [Compound 5, Betulon Aldehyde]",inhibition at 25 µM,[1]; [19],19%
same,inhibition at 2.5 µM,[1]; [20],21.9%
same,inhibition at 0.25 µM,[1]; [21],6.34%
same,inhibition at 25 µM,[1]; [22],40.2%
same,inhibition at 2.5 µM,[1]; [23],47.4%
same,inhibition at 0.25 µM,[1]; [24],29.8%
same,Percent Killed,"[2]; SF-268, 1 × 10^−4 M",27%
same,Percent Killed,"[3]; NCI-H460, 1 × 10^−4 M",89%
same,Percent Killed,"[4]; MCF7, 1 × 10^−4 M",68%
"C=C(C)C1CCC2(COC)CCC3(C)C(CCC4C5(C)CCC(OC)C(C)(C)C5CCC43C)C12 (stereo not drawn) [Compound 7, Betulin Dimethyl ether (Cornelon)]",inhibition at 25 µM,[1]; [19],45%
same,inhibition at 2.5 µM,[1]; [20],18.1%
same,inhibition at 0.25 µM,[1]; [21],7.76%
same,inhibition at 25 µM,[1]; [22],50.9%
same,inhibition at 2.5 µM,[1]; [23],44%
same,inhibition at 0.25 µM,[1]; [24],27.9%
same,Percent Killed,"[2]; SF-268, 1 × 10^−4 M",100%
same,Percent Killed,"[3]; NCI-H460, 1 × 10^−4 M",80%
same,Percent Killed,"[4]; MCF7, 1 × 10^−4 M",97%
same,Percent Killed,[5],Toxic
C=C(C)C1CCC2(C(=O)NCCCCC(NC(=O)OC(C)(C)C)C(=O)OC)CC[C@]3(C)[C@H](CC[C@@H]4[C@@]5(C)CCC(=O)C(C)(C)[C@@H]5CC[C@]43C)C12 (stereo partly drawn) [Monomer],cells killed,[1]; 1×10^−4 M,~80%
same,inhibition at 100 µM,"[1]; Homo sapiens, 48 hours, 1 × 10^−4 M, read-out: Growth Inhibition %",82.8 ± 14.3%
"C=C(C)[C@@H]1CC[C@]2(C=O)CC[C@]3(C)[C@H](CC[C@@H]4[C@@]5(C)CC[C@H](O)C(C)(C)[C@@H]5CC[C@]43C)[C@@H]12 [Compound 3, Betulin Aldehyde]",Growth Inhibition %,"[1]; 24 hours, 2.5 × 10^−6 M",11.0%
"C=C(C)[C@@H]1CC[C@]2(COC(C)=O)CC[C@]3(C)[C@H](CC[C@@H]4[C@@]5(C)CC[C@H](OC(C)=O)C(C)(C)[C@@H]5CC[C@]43C)[C@@H]12 [Compound 6, Betulin Diacetate]",inhibition at 25 µM,[1]; [19],17%
same,inhibition at 2.5 µM,[1]; [20],18.7%
same,inhibition at 0.25 µM,[1]; [21],0%
same,inhibition at 25 µM,[1]; [22],56.6%
same,inhibition at 2.5 µM,[1]; [23],46.7%
same,inhibition at 0.25 µM,[1]; [24],27.9%
same,Percent Killed,"[6]; CAKI-1, 1 × 10^−4 M",100%
same,Percent Killed,"[6]; CAKI-1, 1 × 10^−5 M",100%
same,Percent Killed,"[6]; CAKI-1, 1 × 10^−6 M",100%
same,Percent Killed,"[7]; DU-145, 1 × 10^−4 M",100%
same,Percent Killed,"[7]; DU-145, 1 × 10^−5 M",100%
same,Percent Killed,"[7]; DU-145, 1 × 10^−6 M",100%
same,Percent Killed,"[7]; DU-145, 1 × 10^−7 M",100%
same,Percent Killed,"[7]; DU-145, 1 × 10^−8 M",27%
same,Percent Killed,"[8]; OVACR-3, 1 × 10^−4 M",100%
same,Percent Killed,"[8]; OVACR-3, 1 × 10^−5 M",100%
same,Percent Killed,"[8]; OVACR-3, 1 × 10^−6 M",96%
same,Percent Killed,"[9]; OVCAR-5, 1 × 10^−4 M",100%
same,Percent Killed,"[9]; OVCAR-5, 1 × 10^−5 M",100%
same,Percent Killed,"[9]; OVCAR-5, 1 × 10^−6 M",100%
same,Percent Killed,"[2]; SF-268, 1 × 10^−4 M",100%
same,Percent Killed,"[2]; SF-268, 1 × 10^−5 M",100%
same,Percent Killed,"[2]; SF-268, 1 × 10^−6 M",100%
same,Percent Killed,"[2]; SF-268, 1 × 10^−7 M",75%
same,Percent Killed,"[2]; SF-268, 1 × 10^−8 M",15%
same,Percent Killed,"[10]; HOP-92, 1 × 10^−4 M",100%
same,Percent Killed,"[10]; HOP-92, 1 × 10^−5 M",100%
same,Percent Killed,"[10]; HOP-92, 1 × 10^−6 M",100%
same,Percent Killed,[11]; 1 × 10^−4 M,100%
same,Percent Killed,[11]; 1 × 10^−5 M,100%
same,Percent Killed,[11]; 1 × 10^−6 M,100%
same,Percent Killed,[11]; 1 × 10^−7 M,23%
same,Percent Killed,"[3]; NCI-H460, 1 × 10^−4 M",100%
same,Percent Killed,"[3]; NCI-H460, 1 × 10^−5 M",100%
same,Percent Killed,"[3]; NCI-H460, 1 × 10^−6 M",100%
same,Percent Killed,"[3]; NCI-H460, 1 × 10^−7 M",25%
same,Percent Killed,[12]; 1 × 10^−4 M,100%
same,Percent Killed,[12]; 1 × 10^−5 M,100%
same,Percent Killed,[12]; 1 × 10^−6 M,100%
same,Percent Killed,"[13]; TK-10, 1 × 10^−4 M",100%
same,Percent Killed,"[13]; TK-10, 1 × 10^−5 M",100%
same,Percent Killed,"[13]; TK-10, 1 × 10^−6 M",49%
same,Percent Killed,"[14]; RXF 393, 1 × 10^−4 M",100%
same,Percent Killed,"[14]; RXF 393, 1 × 10^−5 M",100%
same,Percent Killed,"[14]; RXF 393, 1 × 10^−6 M",100%
same,Percent Killed,"[14]; RXF 393, 1 × 10^−7 M",97%
same,Percent Killed,"[14]; RXF 393, 1 × 10^−8 M",15%
same,Percent Killed,"[4]; MCF7, 1 × 10^−4 M",100%
same,Percent Killed,"[4]; MCF7, 1 × 10^−5 M",100%
same,Percent Killed,"[4]; MCF7, 1 × 10^−6 M",100%
same,Percent Killed,"[4]; MCF7, 1 × 10^−7 M",100%
same,Percent Killed,"[15]; U251, 1 × 10^−4 M",100%
same,Percent Killed,"[15]; U251, 1 × 10^−5 M",100%
same,Percent Killed,"[15]; U251, 1 × 10^−6 M",100%
same,Percent Killed,"[15]; U251, 1 × 10^−7 M",100%
same,Percent Killed,[16]; 1 × 10^−4 M,100%
same,Percent Killed,[16]; 1 × 10^−5 M,100%
same,Percent Killed,[16]; 1 × 10^−6 M,100%
same,Percent Killed,[16]; 1 × 10^−7 M,100%
same,Percent Killed,[16]; 1 × 10^−8 M,98%
same,Percent Killed,"[17]; PC-3, 1 × 10^−4 M",25%
same,Percent Killed,"[17]; PC-3, 1 × 10^−5 M",15%
C=C(C)C1CCC2(C(=O)NCCCCC(NC(=O)OC(C)(C)C)C(=O)O)CC[C@]3(C)[C@H](CC[C@@H]4[C@@]5(C)CCC(=O)C(C)(C)[C@@H]5CC[C@]43C)C12 (stereo partly drawn) [Boc-Monomer],tolerability,[18],well tolerated
"C=C(C)[C@@H]1CC[C@]2(C(=O)O)CC[C@]3(C)[C@H](CC[C@@H]4[C@@]5(C)CC[C@H](O)C(C)(C)[C@@H]5CC[C@]43C)[C@@H]12 [Compound 2, Betulinic Acid]",Growth Inhibition %,"[1]; 24 hours, 2.5 × 10^−5 M",41.0%
